From US8163795B2, “Chroman derivatives, medicaments and use in therapy” (Marshall Edwards, Inc., priority 2004, dated 2012)
Where two headings read alike, the source gives them in different places.

Experiments:
[1] = tested on: HPAC (CRL-2119) pancreatic cancer cell line; assay: Proliferation assay (MTT); assay type: cell-based, human; settings: Homo sapiens, HPAC, Table 2.2; Pancreatic HPAC; read-out: IC50
rabbit kidney cells (RK) = assay: Proliferation assay (MTT), normal cell toxicity; assay type: cell-based
Description: (§1) The normal cell line NFF (neonatal foreskin fibroblasts) was a sift from Dr. Peter Parsons (Queensland Institute of Medical Research). RK (rabbit kidney) cells were obtained from Miller Whalley (Macquarie University). Both cell lines were cultured in RPMI supplemented with 10% FCS(CSL, Australia), penicillin (100 U/ml), streptomycin ([…]), L-glutamine (2 mM) and sodium bicarbonate (1.2 g/L), and cultured at 37° C. in a humidified atmosphere of 5% CO2.
(§2) IC50 values were determined for each cell line. Cells were seeded in 96-well plates at an appropriate cell density as determined from growth kinetics analysis and cultured for 5 days in the absence and presence of the test compounds. Cell proliferation was assessed after the addition of 20 μl of 3-4,5 dimethylthiazol-2,5-diphenyl tetrazolium bromide (MTT, 2.5 mg/ml in PBS, Sigma) for 3-4 hrs at 37° C. according to manufacturer's instructions. IC50 values were calculated from semi-log plots of % of control proliferation on the y-axis against log dose on the x-axis.

[2] = tested on: cancer cell lines from different pathologies; assay: HHC as chemosensitiser, statements by cancer indication; assay type: cell-based
Description: (§3) HHC was screened as chemosensitiser against a panel cell lines representative of a range cancer indications using a panel of cytotoxics commonly used in the treatment of cancer.

[3] = HMC and HHC pharmacokinetics, oral, human patients; assay type: in vivo; settings: plasma
Description: Human patients were orally dosed with 200 mg of either HMC or HHC. For each challenged patient, blood was taken over a 6 hour period and the results averaged to characterise the plasma pharmacokinetics.

A2058 melanoma cell line = assay: Proliferation assay (MTT); assay type: cell-based; settings: Homo sapiens, A2058, Table 15; melanoma A2058
CCRF-CEM (Leukemic) = assay: Proliferation assay (MTT); assay type: cell-based; settings: Homo sapiens, CCRF-CEM, Table 2.2; Leukaemia CCRF-CEM
Description: (§4) All cultures were supplemented with 10% FCS (fetal calf serum CSL, Australia), penicillin (100 U/ml), streptomycin ([…]), L-glutamine (2 mM) and sodium bicarbonate (1.2 g/L), and cultured at 37° C. in a humidified atmosphere of 5% CO2. All cell lines were purchased from ATCC (Maryland, USA) except where noted.
as §2

[4] = tested on: PC3 prostate cancer cell line; assay: Proliferation assay (MTT); assay type: cell-based; settings: Table 2.2
Description: as §4, §2

4405 melanoma cell line = assay: Proliferation assay (MTT); assay type: cell-based; settings: Table 15; melanoma 4405
Description: as §4, §2

RM melanoma cell line = assay: Proliferation assay (MTT); assay type: cell-based; settings: Table 15
Description: as §4, §2

HTB-138 (Glioma) = assay: Proliferation assay (MTT); assay type: cell-based; settings: Table 2.2; Glioma HTB-138
Description: as §4, §2

HT-29 (Colorectal) = assay: Proliferation assay (MTT); assay type: cell-based; settings: Homo sapiens, HT-29, Table 2.2; Colorectal HT-29
Description: as §4, §2

[5] = tested on: SKMe128 melanoma cell line; assay: Proliferation assay (MTT); assay type: cell-based; settings: Table 15
Description: as §4, §2

IGR-3 (Melanoma) = assay: Proliferation assay (MTT); assay type: cell-based; settings: Table 15; melanoma IgR3
Description: as §4, §2

NCI-H460 (Lung) = assay: Proliferation assay (MTT); assay type: cell-based; settings: Homo sapiens, NCI-H460, Table 2.2; NSC Lung NCI-H460
Description: as §4, §2

MM96L melanoma cell line = assay: Proliferation assay (MTT); assay type: cell-based; settings: Homo sapiens, Table 15
Description: as §4, §2

[6] = tested on: Neonatal foreskin fibroblasts (NFF); assay: Proliferation assay (MTT), normal cell toxicity; assay type: cell-based, Human
Description: as §1, §2

[7] = tested on: MDA-MB-468 breast cancer cell line; assay: Proliferation assay (MTT); assay type: cell-based; settings: Homo sapiens, MDA-MB-468, Table 2.2; Breast MDA-MB-468; read-out: IC50
CP70 (Ovarian) = assay: HHC as chemosensitiser; assay type: cell-based
Description: as §3

MDA-468 (Breast) = assay: HHC as chemosensitiser; assay type: cell-based; settings: Breast MDA-468
Description: as §3

MM96L (Melanoma) = assay: HHC as chemosensitiser; assay type: cell-based
Description: as §3

HTB-13.8 (Glioma) = assay: HHC as chemosensitiser; assay type: cell-based; settings: Glioma HTB-13.8
Description: as §3

HPAC (Pancreatic) = assay: HHC as chemosensitiser; assay type: cell-based
Description: as §3

PC3 (Prostate) = assay: HHC as chemosensitiser; assay type: cell-based
Description: as §3

cancer cell lines = assay: Proliferation assays, statements over several cancer cell lines; assay type: cell-based; settings: all melanoma cell lines tested to date
Description: as §2

MM200 melanoma cell line = assay: Proliferation assay (MTT); assay type: cell-based; settings: read-out: IC50
[8] = tested on: CP70 ovarian cancer cell line; assay: Proliferation assay (MTT); assay type: cell-based; settings: Table 2.2 (further studies); Ovarian CP70; read-out: IC50
TXB2 = assay: Eicosanoid synthesis in LPS-stimulated murine macrophages (RAW 264.7); assay type: cell-based, mouse; settings: 10 μM; negative values indicate inhibition
Description: (§5) The mouse macrophage cell line RAW 264.7 was cultured in DMEM supplemented with foetal calf serum (FCS), 2 mM glutamine and 50 U/ml penicillin/streptomycin. Subconfluent cells were detached from the flask by gentle scraping and 24-well plates seeded at 5×10^5 cells per well and allowed to adhere for 1 hr. Cells were then treated either test compound at a concentration of 10 μM (in 0.025% DMSO) or vehicle alone, and incubated for 1 hr. LPS 50 ng/ml (LPS—Sigma-Aldrich) was then added. After incubation for 16 hrs, culture media was collected and stored at −80° C. for ecosanoid measurements using enzyme immunometric assays (PGE2 and TXB2—Cayman Chemical).
(§6) Table 16: Percentage change in eicosanoid synthesis after incubating test compound at 10 μM compared with incubation with vehicle alone.

PGE2 = assay: as above; assay type: cell-based, mouse; settings: 10 μM; negative values indicate inhibition
Description: as §5, §6

[9] = human, po, humans dosed orally with 200 mg

IC50 [1]: 31600 ± 27000 nM
Cmax [3, 9]: 341 ng/mL
Tmax [3, 9]: 2.67 h
t1/2 ([3]; humans dosed orally with 200 mg): 3.26 h
half-life ([3]; human patients, 200 mg oral, initial results): 3.26 h
IC50 (A2058 melanoma cell line): 340 nM
IC50 (CCRF-CEM (Leukemic)): 600 ± 10 nM
IC50 [4]: 880 ± 400 nM
IC50 (4405 melanoma cell line): 500 nM
IC50 (RM melanoma cell line): 390 ± 280 nM
IC50 (HTB-138 (Glioma)): 520 ± 100 nM
IC50 (HT-29 (Colorectal)): 2500 ± 1000 nM
IC50 [5]: 360 ± 340 nM
IC50 (IGR-3 (Melanoma)): 200 nM
IC50 (NCI-H460 (Lung)): 500 ± 100 nM
IC50 (MM96L melanoma cell line): 200 ± 90 nM
IC50 [7]: 1000 ± 100 nM
IC50 (cancer cell lines): < 1000 nM
IC50 (MM200 melanoma cell line; Table 2.2, Melanoma MM200): 600 ± 300 nM
IC50 (MM200 melanoma cell line; Table 15, melanoma MM200, monotherapy): 660 ± 280 nM
IC50 [8]: 1100 ± 900 nM
Structure (SMILES): Oc1ccc(C2COc3cc(O)ccc3C2c2ccc(O)cc2)cc1 (stereo not drawn) [Compound 11, 3-(4-hydroxyphenyl)-4-(4-hydroxyphenyl)chroman-7-ol]
IC50 (rabbit kidney cells (RK); Oryctolagus cuniculus, Table 1, Rabbit Kidney, read-out: IC50): > 150000 nM
IC50 (rabbit kidney cells (RK); rabbit kidney cells): non-toxic
synergy HHC:paclitaxel ([2]; breast and colorectal cancer, and melanoma cell lines): Moderate synergy
synergy HHC:cisplatin ([2]; colorectal cancer cell lines): mild synergy
synergy HHC:cisplatin ([2]; ovarian and prostate cancer): Strong synergy
synergy HHC:paclitaxel ([2]; ovarian cancer and glioma cell lines): Equivocal synergy
chemosensitisation to gemcitabine ([2]; ovarian, prostate, breast and pancreatic cancers, and glioma): strongly chemosensitise
synergy HHC:cisplatin ([2]; pancreatic cancer and glioma): synergy was not observed
synergy HHC:paclitaxel ([2]; prostate and pancreatic cancer cell lines): no evidence of synergy
IC50 ([6]; Homo sapiens, Fibroblast, Table 1, Neonatal Foreskin Fibroblasts (Human, NFF), read-out: IC50): 60800 nM
IC50 ([6]; NFF): non-toxic
Synergy of HHC with Cisplatin (CP70 (Ovarian)): SSSSS (SSSSS = Synergy)
Synergy of HHC with Gemcitabine (CP70 (Ovarian)): SSSSS (SSSSS = Synergy)
Synergy of HHC with Paclitaxel (CP70 (Ovarian); listed as HHC): n.o. (n.o. = not observed)
Synergy of HHC with Gemcitabine (MDA-468 (Breast)): SSSSS (SSSSS = Synergy)
chemosensitisation to cisplatin, carboplatin and decarbazine (MM96L (Melanoma); MM96L melanoma cell line): strongly chemosensitise
Synergy of HHC with Carboplatin (MM96L (Melanoma); Melanoma MM96L): SSSSS (SSSSS = Synergy)
Synergy of HHC with Cisplatin (MM96L (Melanoma); Melanoma MM96L): SSSSS (SSSSS = Synergy)
Synergy of HHC with Dacarbazine (MM96L (Melanoma); Melanoma MM96L): SSSSS (SSSSS = Synergy)
Synergy of HHC with Cisplatin (HTB-13.8 (Glioma)): n.o. (n.o. = not observed)
Synergy of HHC with Gemcitabine (HTB-13.8 (Glioma)): SSSSS (SSSSS = Synergy)
Synergy of HHC with Paclitaxel (HTB-13.8 (Glioma); listed as HHC): n.o. (n.o. = not observed)
Synergy of HHC with Cisplatin (HPAC (Pancreatic)): n.o. (n.o. = not observed)
Synergy of HHC with Gemcitabine (HPAC (Pancreatic)): SSSSS (SSSSS = Synergy)
Synergy of HHC with Paclitaxel (HPAC (Pancreatic)): n.o. (n.o. = not observed)
Synergy of HHC with Cisplatin (PC3 (Prostate)): SSSSS (SSSSS = Synergy)
Synergy of HHC with Gemcitabine (PC3 (Prostate)): SSSSS (SSSSS = Synergy)
Synergy of HHC with Paclitaxel (PC3 (Prostate)): n.o. (n.o. = not observed)
Percentage change in TXB2 synthesis vs vehicle alone (TXB2): 51.4%
Percentage change in PGE2 synthesis vs vehicle alone (PGE2): 27.2%
